These results are taken from US20250282895A1, “PHARMACEUTICAL COMPOSITIONS OF CHEMOTHERAPEUTIC AGENTS BASED ON BETA-S[…]-AMINO ACID DERIVATIVES” (priority 2021, published 2025).

Counter-ions that a name gives are not always drawn.

A short description of the data set: Comparative stability, Formulation 2 (based on Alkeran). The data set is classed as physicochemical. To be noted: Formulation 2, 25° C. The procedure:
The stability of Compound (1c) either as the HCl salt or as the free base was compared to the stability of melphalan HCl and/or bendamustine HCl in various pharmaceutical formulations and at different concentrations and at temperatures of 0° C. or 25° C.
The stability of the compounds in the pharmaceutical formulations was determined at concentrations within the range from 0.4 mg/mL to 0.5 mg/mL, from 0.9 mg/mL to 1.1 mg/mL, and from 1.8 mg/mL to 2.1 mg/mL.
The amount of the active pharmaceutical ingredient (API) (Compound (1c), melphalan or bendamustine) in the pharmaceutical formulations at different times during storage was determined using HPLC/UV as described in detail for Example 4 and Example 5.
Alkeran® is an injectable formulation of melphalan-HCl approved by the FDA. Alkeran® for injection is supplied as a sterile, nonpyrogenic, freeze-dried powder. Each vial contains melphalan hydrochloride equivalent to 50 mg melphalan and 20 mg povidone (polyvinylpyrrolidinone, PVP). The solid powder is recons trued in a sterile diluent containing 0.2 g of sodium citrate, 6.0 mL of propylene glycol, and 0.52 mL of ethanol (96%) and Water for Injection for a total of 10 mL. This provides a nominal 5 mg/mL solution of melphalan (admixture). The dose to be administered is immediately diluted in 0.9% sodium chloride injection, USP, to a concentration not greater than 0.45 mg/mL. Alkeran® for injection is administered intravenously.
A stock solution was prepared by dissolving 68.8 mg (0.206 mmol) of Compound (1c) (free base) and 25.0 mg of Plasdone® C-12 (Povidone; Ashland, 830796) in about 20.0 mL of a mixture of acetonitrile/water (1:1, v/v) with vortexing in clean graduated glass cylinder (25 mL). A solution of 0.407 mL of 0.5072 M aq. HCl (0.206 mmol, 1.0 eq.; Fluka, 318957) was added with gentle vortexing, and the resulting clear solution was further diluted to 25.0 mL with a mixture of acetonitrile/water (1:1, v/v) with gentle vortexing to afford a stock solution of Compound (1c) as a mono-HCl salt of a concentration 2.75 mg/mL and a Plasdone® concentration of 1.0 mg/mL. This solution was filtered through a 0.45 μm nylon syringe filter into a clean 50 mL Erlenmeyer flask. Aliquots of 2.0 mL (2× 1.0 mL; 2× 2.75 mg) of this stock solution were rapidly pipetted into clean 12 mL scintillation vials. The aliquots were frozen at −78° C. (dry ice/acetone bath) and lyophilized at about 100 mTorr for about 16 hours to provide test vials each containing 6.1 mg (0.0165 mmol) of Compound (1c) mono-hydrochloride salt (mono-HCl salt) (corresponding to 5.5 mg of Compound (1c), free base, as a colorless powdery solid.
A stock solution was prepared by dissolving 62.5 mg (0.205 mmol) of melphalan (free base; SigmaAldrich, M2011) and 25.0 mg of Plasdone® C-12 (Povidone; Ashland, 830796) in about 20.0 mL of a mixture of acetonitrile/water (1:1, v/v) with vortexing in clean graduated glass cylinder (25 mL). A solution of 0.404 mL of 0.5072 M aq. HCl (0.205 mmol, 1.0 eq.; Fluka, 318957) was added with gentle vortexing, and the resulting clear solution was further diluted to 25.0 mL with a mixture of acetonitrile/water (1:1, v/v) with gentle vortexing to afford a stock solution of melphalan as a mono-HCl salt of a concentration 2.50 mg/mL and a Plasdone® concentration of 1.0 mg/mL. This solution was filtered through a 0.45 μm nylon syringe filter into a clean 50 mL Erlenmeyer flask. Aliquots of 2.0 mL (2× 1.0 mL; 2×2.50 mg) of this stock solution were rapidly pipetted into clean 12 mL scintillation vials. The aliquots were frozen at −78° C. (dry ice/acetone bath) and lyophilized at about 100 mTorr for about 16 hours to provide test vials each containing 5.6 mg (0.0164 mmol) of melphalan mono-hydrochloride salt (mono-HCl salt) (corresponding to 5.0 mg of melphalan as a free base) as a colorless powdery solid. […]

[1] abbreviates: pH 5.5-5.8, 0.5 hours, 0.4-0.5 mg/mL.
Setting [2] is: pH 5.5-5.8, 0.5 hours, 0.9-1.1 mg/mL.
Setting [3] is: pH 5.5-5.8, 0.5 hours, 1.8-2.1 mg/mL.
Where [4] appears, read: pH 5.5-5.8, 2.0 hours, 0.4-0.5 mg/mL.
[5] abbreviates: pH 5.5-5.8, 2.0 hours, 0.9-1.1 mg/mL.
Setting [6] is: pH 5.5-5.8, 2.0 hours, 1.8-2.1 mg/mL.

As to `Cc1ccc(N(CCCl)CCCl)cc1C[C@H](N)CC(=O)O` [Compound (1c)•HCl, (S)-3-amino-4-(5-(bis(2-chloroethyl)amino)-2-methylphenyl) butanoic acid mono hydrochloride salt], the “% API” value reads like this: under setting [1], 91%; under setting [2], 89%; under setting [3], 89%; under setting [4], 72%; under setting [5], 60%; under setting [6], 62%.

With `Cl.N[C@@H](Cc1ccc(N(CCCl)CCCl)cc1)C(=O)O` [Melphalan•HCl, 4-[bis(2-chloroethyl)amino]-L-phenylalanine hydrochloride, reference compound], the “% API” value is, setting by setting: under setting [1], 95%; under setting [2], 91%; under setting [3], 91%; under setting [4], 84%; under setting [5], 71%; under setting [6], 75%.
